{
  "source": "patent US11679100B2",
  "about": "“Methods of enhancing immunity” (The Regents of the University of California, priority 2018, dated 2023)",
  "key": {"CD11b": {"target": "T1, CD11b (Homo sapiens, UniProt P11215)", "T1 construct": "Human CD14+ monocytes were isolated from the PBMCs; endogenous in cells; host or cells: primary human CD14+ monocytes from whole-blood PBMCs", "experiment": "Cell adhesion assay on ICAM-1 coated substrates", "format": "cell-based", "settings": "LA1 20 μM", "procedure": "Cell Adhesion Assay— PBMCs were extracted from human whole blood using the vendor instructions for Sep Mate-50 tubes (#15450, Stem Cell). Human CD14+ monocytes were isolated from the PBMCs using the vendor instructions for the EasySep™ Human Monocyte Isolation Kit (Catalog #19359, Stem Cell). Briefly, 384-well plates (#3700, Corning) were coated with recombinant human ICAM1 (750 ng/mL, #720-IC, R&D Systems), or M1/70 (10 ug/mL, #101202, Biolegend) or IB4 (10 μg/mL, #167-020, Ancell) overnight at 4° C. Wells were blocked with 1% milk dissolved in TBS for 1 hr at room temperature. All wells received Ca^2+/Mg^2+ ions (1 mM each physiological concentration, baseline control) except for the positive control wells that received 1 mM Mn^2+ ions. A stock solution of LA1 agonist was prepared by dissolving the compound in DMSO at a concentration of 2 mM and final dilution of LA1 in wells was 20 μM. The final concentration of DMSO in all wells was 1%. 45,000 human monocytes were seeded in each well. Some wells received human monocytes cells that were pre-blocked with anti-human CD11b (M1/70) for 15 min at 4° C. The plates were incubated at 37° C. for 30 min followed by 30 min of inversion at room temperature to remove non-adherent cells. Cells were fixed, stained with DAPI and counted using the Opera High Content Screening System (Perkin Elmer). Assays were performed in six replicate wells."}, "CL66-Luc breast tumors": {"test_system": "CL66-Luc breast tumors", "experiment": "Orthotopic CL66-Luc breast tumor model", "format": "in vivo, Balb/cJ mice", "procedure": "Tumor Studies—Subcutaneous tumor studies: 5×10^5 LLC or B16 cells were injected subcutaneously into syngeneic (C57BL/6) 6- to 8-week old WT or Itgam^−/− mice (n=18). Tumors were excised at 7, 14 or 21 days, cryopreserved in OCT, lysed for RNA purification or collagenase-digested for flow cytometric analysis of CD11b+, F4/80+ and Gr1+ expression. Tumor volumes were calculated using the equation (l^2×w)/2. CL66-luc cells (0.5×10^6 cells) were suspended in 50 μL of basement membrane extract Matrigel (BD Pharmingen) in PBS (1:1) and inoculated orthotopically in the fourth mammary fat pad of female Balb/cJ mice. Tumor dimensions were measured every 2 days, and tumor volume was calculated using the equation: V (mm^3)=[…], where length is the longest diameter of the tumor and width is the shorter diameter.\nMice were divided into four cohorts: vehicle control treated, LA1 only treated, Taxol only treated, LA1 and Taxol treated. LA1 (2 mg/kg) was dissolved in 2% DMSO and 1% Tween-20 in saline and Taxol (2.5 mg/kg) was dissolved in a 1:1:6 ratio of Cremophor EL: Ethanol:Saline. LA1 was administered by intraperitoneal injection (i.p.) daily, while Taxol was administered every other day by i.p. injection until end-point. LA1+Taxol treated mice received LA1 i.p. in the morning followed by Taxol i.p. within 4 hours. Tumor burden was evaluated every other day by caliper measurements. Prior to tissue collection, mice were anesthetized by ketamine/xylazine and the lungs were perfused with PBS followed by 10% formalin and harvested for fixation. Mammary tumor tissue was harvested and divided for fixation (10% formalin or OCT), snap frozen, or made into single-cell suspensions and analyzed by flow cytometric analysis. For survival studies, Balb/c mice bearing CL66-derived tumors were treated for 6 weeks after the first treatment and monitored thereafter. End point was considered when the tumor reached […] in diameter (n=10-15).\nImmunohistochemistry—Tumor samples were collected and cryopreserved in O.C.T. Sections (5 μm) were fixed in 100% cold acetone, blocked with 8% normal goat serum for 2 hours, and incubated with primary antibodies at […] for 2 hours at room temperature. Sections were washed 3 times with PBS and incubated with fluorescent secondary antibodies. Primary antibodies where: F4/80 (BM8, eBioscience), CD4 (H129.19, BD Bioscience), CD8 (53-6.7, BD Bioscience), CD31 (MEC13.1, BD Bioscience), desmin (RB0914-P1, LabVision, Thermo Scientific), and anti-smooth muscle actin (SMA) (1A4, Sigma-Aldrich). Slides were counterstained with 4′,6-diamidino-2-phenylindole (DAPI) to identify nuclei. Immunofluorescence images were collected on a Nikon microscope (Eclipse TE2000-U) and analyzed using Metamorph image capture and analysis software (Version 6.3r5, Molecular Devices). Pixels/field or cell number/field were quantified in five 100× fields from 5 biological replicates. For LA1 studies, immunohistochemical staining was quantified by counting marker positive cells in 3 different areas analyzed at 40× using a light microscope for each tumor tissue (n=4−6). Tissues that were stained with fluorochrome conjugated secondary antibodies were counter stained with DAPI and analyzed using the Zeiss 700 LSM confocal microscope and Zen software (Carl Zeiss Group, Hartford, Conn.).\nAlternatively, immunostaining was performed on formalin fixed, paraffin-embedded tumor tissues. Deparaffinized tissue sections (5 μm) were either stained with hemotoxylin-eosin or were subjected to antigen retrieval by steam heating in an acidic pH solution (Citrate-based, Vector Laboratories) prior to immune staining for α-SMA (clone 1A4, Fisher Scientific), MMP9 (polyclonal rabbit, Abcam), S100A8 (goat polyclonal (M-19), Santa Cruz), CD31 (clone RM0032-1D12, Abcam), or ARG1 (sc-18351, Santa Cruz) at 4° C. overnight. […]"}},
  "data": [
    {"smiles": "O=C(O)c1ccc(-c2ccc(/C=C3\\SC(=S)N(Cc4ccccc4)C3=O)o2)cc1", "note": "[LA1, leukadherin 1]", "values": [
      {"measurement": "myeloid cell adhesion to ICAM-1 coated substrates", "setting": "CD11b", "value": "stimulated myeloid cell adhesion to ICAM-1 coated substrates"},
      {"measurement": "CD8+ T cells in tumors", "setting": "CL66-Luc breast tumors; CL66-Luc tumors", "value": "increased the presence of CD8+ T cells"},
      {"measurement": "MHCII+ macrophages in tumors", "setting": "CL66-Luc breast tumors; CL66-Luc tumors", "value": "increased the presence of MHCII+ macrophages"},
      {"measurement": "expression of Arginase1, S100A8 and MMP9 in tumors", "setting": "CL66-Luc breast tumors; CL66-Luc tumors", "value": "inhibited expression of Arginase1, S100A8 and MMP9 in CL66-Luc tumors"},
      {"measurement": "MHCII, CD206, Arg1, MMP9 and S100A8 expression in TAMs", "setting": "CL66-Luc breast tumors; CL66 Luc model", "value": "stimulating MHCII expression and reducing CD206, Arg1, MMP9 and S100A8 expression in TAMs"},
      {"measurement": "CL66-Luc tumor growth, combination with irradiation", "setting": "CL66-Luc breast tumors; LA1 2 mg/kg + IR 20 Gy", "value": "synergized with irradiation to suppress CL66-Luc breast tumor growth"},
      {"measurement": "CL66-Luc tumor growth", "setting": "CL66-Luc breast tumors; LA1 2 mg/kg i.p. daily, compared with taxol", "value": "potently reduced tumor growth in syngeneic, orthotopically implanted CL66-Luc breast tumors more effectively than taxol"},
      {"measurement": "survival", "setting": "CL66-Luc breast tumors; mouse models of cancer", "value": "prolong survival in mouse models of cancer"},
      {"measurement": "CL66 Luc tumor growth relative to control tumors", "setting": "CL66-Luc breast tumors; syngeneic, immune competent mice", "value": 25, "unit": "%"}
    ]}
  ]
}
